Test results as given in ChEMBL document CHEMBL3992523, “Potent Inhibition of Nitric Oxide-Releasing Bifendate Derivatives against Drug-Resistant K562/A02 Cells in Vitro and in Vivo” (J Med Chem, 2017).
Activity calls are given as the source filed them. The calls are words filed in the database; no cut-off is given here.

Experiments:
[1] = Resistant factor, ratio of IC50 for P-gp overexpressing/drug resistant human K562/A02 cells to IC50 for human K562 cells; type: functional
K562 [2] = experiment: Anti-proliferative activity against human K562 cells measured after 72 hrs by MTS assay; type: functional, cell-based; conditions: K562, 72 h
K562/A02 [3] = experiment: Anti-proliferative activity against P-gp overexpressing/drug resistant human K562/A02 cells measured after 72 hrs by MTS assay; type: functional, cell-based; conditions: K562/A02, 72 h
K562/A02 [4] = experiment: Antitumor activity against P-gp overexpressing/drug resistant human K562/A02 cells xenografted in BALB/c nude mouse assessed as reduction in tumor weight at 4 mg/kg, iv administered every other day for 21 days measured post last dose; type: functional, organism-based
[5] = Toxicity in BALB/c nude mouse administered via ip for every 3 days of four injections; conditions: in vivo
K562/A02 [6] = experiment: Antitumor activity against P-gp overexpressing/drug resistant human K562/A02 cells xenografted in BALB/c nude mouse assessed as reduction in tumor size at 4 mg/kg, iv administered every other day for 21 days measured post last dose; type: functional, organism-based
K562/A02 [7] = experiment: Antitumor activity against P-gp overexpressing/drug resistant human K562/A02 cells xenografted in BALB/c nude mouse assessed as tumor growth inhibition at 4 mg/kg, iv administered every other day for 21 days measured post last dose relative to control; type: functional; conditions: 504 h, read-out: TGI
Homo sapiens [8] = organism: Homo sapiens; experiment: Effect on P-gp ATPase activity in human K562/A02 cell membranes assessed as remaining ATP level by measuring relative light units at 200 uM in presence of MgATP measured after 40 mins by luminescence based P-gp-Glo assay
K562 [9] = experiment: Effect on rhodamine123 accumulation in human K562 cells at 0.33 to 10 uM measured after 1 hr by flow cytometry; type: functional, cell-based
Homo sapiens [10] = organism: Homo sapiens; experiment: Inhibition of P-gp in human K562/A02 cells assessed as increase in intracellular rhodamine123 accumulation at 0.33 to 10 uM measured after 1 hr by flow cytometry; type: cell-based
[11] = Permeability in human Caco2 cells assessed as concentration ratio of basolateral to apical side at 100 uM measured at 10 mins post dose by HPLC analysis; type: ADME, cell-based; conditions: caco-2, 10 min
[12] = Permeability in human Caco2 cells assessed as concentration ratio of basolateral to apical side at 100 uM measured at 5 mins post dose by HPLC analysis; type: ADME, cell-based; conditions: caco-2, 5 min
[13] = Drug metabolism in P-gp overexpressing/drug resistant human K562/A02 cells assessed as nitric oxide production at 100 uM measured at 240 mins by Griess assay; type: ADME, cell-based; conditions: k562/a02, 4 h
K562/A02 [14] = experiment: Anti-proliferative activity against P-gp overexpressing/drug resistant human K562/A02 cells at 150 uM in presence of hemoglobin measured after 24 hrs by MTS assay; type: functional, cell-based

| Molecule | Ratio IC50 [1] | IC50 (K562 [2]) | IC50 (K562/A02 [3]) | further results |
| --- | --- | --- | --- | --- |
| COC(=O)c1cc(OC)c2c(c1-c1c(C(=O)OCCN3CCN(CC(=O)OC(C)CCOc4no[n+]([O-])c4S(=O)(=O)c4ccccc4)CC3)cc(OC)c3c1OCO3)OCO2 (stereo not drawn) | 2.1 | 380 nM | 810 nM |  |
| COc1cccc2c1C(=O)c1c(O)c3c(c(O)c1C2=O)C[C@@](O)(C(=O)CO)C[C@@H]3O[C@H]1C[C@H](N)[C@H](O)[C@H](C)O1.Cl [DOXORUBICIN HYDROCHLORIDE] | 41.5 | 590 nM | 24500 nM | Activity (K562/A02 [4]): inactive; MTD at 72 h [5]: 4 mg/kg; Activity (K562/A02 [6]): inactive; inhibition in vivo at 4 mg/kg (K562/A02 [7]): 18.6% |
| COc1ccc(CCN(C)CCCC(C#N)(c2ccc(OC)c(OC)c2)C(C)C)cc1OC (stereo not drawn) |  |  |  | Activity (Homo sapiens [8]): 179000 RLU; Activity (K562 [9]): inactive; inhibition (Homo sapiens [10]): Active |
| COC(=O)c1cc(OC)c2c(c1-c1c(C(=O)OC3CCN(CC(=O)OCCCOc4no[n+]([O-])c4S(=O)(=O)c4ccccc4)CC3)cc(OC)c3c1OCO3)OCO2 | 0.7 | 800 nM | 590 nM |  |
| O=C(CN1CCC(O)CC1)OCCCCOc1no[n+]([O-])c1S(=O)(=O)c1ccccc1 | 1.8 | 2250 nM | 4110 nM | Ratio [11]: 0.03; Ratio [12]: 0.02 |
| COC(=O)c1cc(OC)c2c(c1-c1c(C(=O)OC3CCN(CC(=O)OC(C)CCOc4no[n+]([O-])c4S(=O)(=O)c4ccccc4)CC3)cc(OC)c3c1OCO3)OCO2 (stereo not drawn) | 1.9 | 390 nM | 760 nM |  |
| COC(=O)c1cc(OC)c2c(c1-c1c(C(=O)OCCN3CCN(CC(=O)OCCCOc4no[n+]([O-])c4S(=O)(=O)c4ccccc4)CC3)cc(OC)c3c1OCO3)OCO2 | 1.2 | 750 nM | 930 nM | Drug metabolism [13]: Metabolite_Detected |
| COC(=O)c1cc(OC)c2c(c1-c1c(C(=O)OC3CCN(CC(=O)OC(C)(C)CCOc4no[n+]([O-])c4S(=O)(=O)c4ccccc4)CC3)cc(OC)c3c1OCO3)OCO2 | 1.1 | 870 nM | 910 nM |  |
| COC(=O)c1cc(OC)c2c(c1-c1c(C(=O)OC)cc(OC)c3c1OCO3)OCO2 [BIFENDATE] |  | > 200000 nM | > 200000 nM |  |
| COC(=O)c1cc(OC)c2c(c1-c1c(C(=O)OC3CCN(CC(=O)OCCOc4no[n+]([O-])c4S(=O)(=O)c4ccccc4)CC3)cc(OC)c3c1OCO3)OCO2 | 1.3 | 510 nM | 650 nM |  |
| COC(=O)c1cc(OC)c2c(c1-c1c(C(=O)OC3CCN(CC(=O)OCCOCCOc4no[n+]([O-])c4S(=O)(=O)c4ccccc4)CC3)cc(OC)c3c1OCO3)OCO2 | 1.4 | 640 nM | 890 nM | Drug metabolism [13]: Metabolite_Detected |
| COC(=O)c1cc(OC)c2c(c1-c1c(C(=O)OCCN3CCN(CC(=O)NCCOc4no[n+]([O-])c4S(=O)(=O)c4ccccc4)CC3)cc(OC)c3c1OCO3)OCO2 | 5.5 | 550 nM | 3010 nM |  |
| COC(=O)c1cc(OC)c2c(c1-c1c(C(=O)OC3CCN(CC(=O)OCCCCOc4nonc4S(=O)(=O)c4ccccc4)CC3)cc(OC)c3c1OCO3)OCO2 | 1.1 | 68000 nM | 73000 nM | Drug metabolism [13]: Metabolite_Notdetected |
| COC(=O)c1cc(OC)c2c(c1-c1c(C(=O)OCCN3CCN(CC(=O)OC(C)(C)CCOc4no[n+]([O-])c4S(=O)(=O)c4ccccc4)CC3)cc(OC)c3c1OCO3)OCO2 | 1.8 | 860 nM | 1510 nM | Drug metabolism [13]: Metabolite_Detected |
| COC(=O)c1cc(OC)c2c(c1-c1c(C(=O)OCCN3CCN(CC(=O)OCCCCOc4no[n+]([O-])c4S(=O)(=O)c4ccccc4)CC3)cc(OC)c3c1OCO3)OCO2 | 2.3 | 690 nM | 1570 nM |  |
| COC(=O)c1cc(OC)c2c(c1-c1c(C(=O)O)cc(OC)c3c1OCO3)OCO2 | 0.9 | 137000 nM | 125000 nM | Activity (K562/A02 [14]): inactive; Drug metabolism [13]: Metabolite_Notdetected |
| O=C(CN1CCC(OC(=O)c2ccccc2)CC1)OCCCCOc1nonc1S(=O)(=O)c1ccccc1 | 1.6 | 4060 nM | 6650 nM |  |
| SODIUM ORTHOVANAD |  |  |  | Activity (Homo sapiens [8]): 242000 RLU |
| COC(=O)c1cc(OC)c2c(c1-c1c(C(=O)OCCN3CCN(CC(=O)OCCOCCOc4no[n+]([O-])c4S(=O)(=O)c4ccccc4)CC3)cc(OC)c3c1OCO3)OCO2 | 6.1 | 380 nM | 2300 nM |  |
| COC(=O)c1cc(OC)c2c(c1-c1c(C(=O)OC3CCN(CC(=O)NCCOc4no[n+]([O-])c4S(=O)(=O)c4ccccc4)CC3)cc(OC)c3c1OCO3)OCO2 | 2.5 | 1280 nM | 3160 nM | Drug metabolism [13]: Metabolite_Detected |
| COC(=O)c1cc(OC)c2c(c1-c1c(C(=O)OCCN3CCN(CC(=O)OCCOc4no[n+]([O-])c4S(=O)(=O)c4ccccc4)CC3)cc(OC)c3c1OCO3)OCO2 | 3.5 | 580 nM | 2010 nM |  |
